Laboratory results reported in US12365674B2, “Inhibitors of histone deacetylase useful for the treatment or prevention of HIV infection” (Merck Sharp & Dohme LLC, priority 2019, dated 2025).

molecular target: T1, HDAC6 (Homo sapiens, UniProt Q9UBN7); experiment: Human HDAC enzyme inhibitor Fluor-de-Lys assay, HDAC6; format: biochemical; conditions: 1.3 nM enzyme, 2.5 μM substrate BML-KI104, 3 h pre-incubation, 60 min reaction; read-out: HDAC6_IC50
T1 sequence (Q9UBN7 1-1215): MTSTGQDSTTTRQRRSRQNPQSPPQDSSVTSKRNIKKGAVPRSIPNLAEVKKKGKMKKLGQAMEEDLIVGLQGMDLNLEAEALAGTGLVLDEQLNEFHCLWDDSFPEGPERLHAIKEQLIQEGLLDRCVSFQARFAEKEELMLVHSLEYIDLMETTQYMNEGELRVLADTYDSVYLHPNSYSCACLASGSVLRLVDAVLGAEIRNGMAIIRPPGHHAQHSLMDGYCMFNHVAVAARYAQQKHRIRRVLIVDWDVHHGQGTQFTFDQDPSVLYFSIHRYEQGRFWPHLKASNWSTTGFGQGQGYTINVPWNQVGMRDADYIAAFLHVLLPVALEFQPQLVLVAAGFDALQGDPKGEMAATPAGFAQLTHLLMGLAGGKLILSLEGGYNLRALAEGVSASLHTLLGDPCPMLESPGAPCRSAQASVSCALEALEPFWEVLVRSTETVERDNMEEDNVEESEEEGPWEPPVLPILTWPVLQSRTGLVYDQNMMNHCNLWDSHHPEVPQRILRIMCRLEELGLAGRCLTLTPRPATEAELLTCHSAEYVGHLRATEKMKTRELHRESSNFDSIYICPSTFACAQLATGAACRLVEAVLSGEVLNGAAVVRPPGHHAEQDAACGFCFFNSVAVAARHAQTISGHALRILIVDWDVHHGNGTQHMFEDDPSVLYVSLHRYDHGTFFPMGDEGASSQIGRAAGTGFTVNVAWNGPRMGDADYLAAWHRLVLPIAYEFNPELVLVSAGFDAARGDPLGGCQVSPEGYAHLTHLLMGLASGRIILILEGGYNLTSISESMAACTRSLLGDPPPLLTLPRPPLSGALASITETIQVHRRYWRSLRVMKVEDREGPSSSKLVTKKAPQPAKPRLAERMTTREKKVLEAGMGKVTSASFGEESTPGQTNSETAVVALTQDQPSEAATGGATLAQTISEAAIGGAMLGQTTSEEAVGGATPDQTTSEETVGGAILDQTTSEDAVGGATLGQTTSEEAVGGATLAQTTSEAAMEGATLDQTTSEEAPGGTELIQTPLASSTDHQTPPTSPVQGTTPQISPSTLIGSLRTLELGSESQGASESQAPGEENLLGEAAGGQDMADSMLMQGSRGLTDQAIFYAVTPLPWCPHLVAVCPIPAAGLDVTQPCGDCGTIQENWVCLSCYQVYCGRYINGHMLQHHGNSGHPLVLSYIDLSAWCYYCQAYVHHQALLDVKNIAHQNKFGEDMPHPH
Excerpt: Recombinant human HDAC8 (catalog number BML-SE145-0100) and HDAC10 (catalog number BML-SE559-0050) enzymes, HDAC substrates BML-KI104 and BML-KI178, and HDAC developer solutions BML-KI105 and BML-KI176 were purchased from Enzo Life Sciences (Farmingdale, NY). Recombinant human HDAC5 and HDAC11 were purchased from BPS Bioscience (San Diego, CA)(catalog numbers 50045 and 50021). Substrate Boc-Lys(TFA)-AMC was obtained from Bachem (Bupendorf, Switzerland) (catalog number 1-1985). HDAC inhibitor suberoylanilide hydroxamic acid (SAHA) was obtained from Indofine (Hillsborough Township, NJ) and trichostatin A (TSA) was obtained from Sigma-Aldrich (St. Louis, MO). […] HEPES pH 8.0 was obtained from Boston BioProducts (Ashland, MA), Tween-20 from Fisher Scientific (Hampton, NH)(catalog number BP337), TCEP from Calbiochem and 7.5% bovine serum albumin (BSA) from Life Technologies (Carlsbad, CA) (catalog number 15260037). 384-well, black assay plates were obtained from Corning (Corning, NY) (catalog number 3575).
The histone deacetylase activities of HDAC1, HDAC2, HDAC3, HDAC6, and HDAC8 were measured in modified Fluor-de-Lys assays in 384-well format. In this assay, HDAC enzymes are initially incubated with an ε-acetyl (or -trifluoroacetyl)-L-lysine-containing substrate with a C-terminal amide having aminomethylcoumarin as the amine component. HDACs cleave the ε-acetyl group, rendering the resulting product susceptible to AMC cleavage by trypsin. The released AMC is then detected by its fluorescence.
The HDAC 1, 2 assays employed buffer A, which contained 20 mM HEPES, pH 8.0, 1 mM MgCl2, 137 mM NaCl, 2.7 mM KCl, 0.05% BSA. The HDAC3/SMRT assay employed buffer B, consisting of 20 mM HEPES, pH 8.0, 1 mM MgCl2, 50 mM NaCl, 2.7 mM KCl, 0.05% BSA, 0.005% Tween 20, and 10 μM IP4. The HDAC6 assay employed buffer C, consisting of 20 mM HEPES, pH 8.0, 1 mM MgCl2, 137 mM NaCl, 2.7 mM KCl, 0.5 mM TCEP (Calbiochem) and 0.05% BSA. The HDAC8 assay employed buffer D, consisting of 20 mM HEPES, pH 8.0, 1 mM MgCl2, 100 mM NaCl, 20 mM KCl, 0.1% n-octyl-β-D-glucoside (Anatrace, Maumee, OH) and 0.05% BSA. All steps were performed at room temperature (23° C.). The assay was performed by pre-incubating serial dilutions of test compounds with the target HDAC prior to initiation with substrate. Each compound was titrated in a 10-point dose response, using a 1:3 fold dilution scheme, with 0.15 ul of solution added by ECHO555 to the plate, followed by the addition of 20 μl of the appropriate HDAC isoform diluted in appropriate assay buffer. […] Final conditions used for each assay were: 1. HDAC 1, 0.3 nM total enzyme, 20 μM substrate BML-K1104; 2. HDAC 2, 1.5 nM total enzyme, 40 μM substrate BML-K1104; 3. HDAC 3/SMRT, 0.3 nM total enzyme, 20 μM substrate BML-K1104; 4. HDAC 6, 1.3 nM total enzyme, 2.5 μM substrate BML-K1104; 5. HDAC 8, 1.3 nM total enzyme, 200 μM substrate BML-K1178; the final high dose of test compound was 30 μM. For potent compounds, 900 nM was used as the final high dose. The reactions were stopped and developed by addition of 30 ul of HDAC developer solution containing a saturating level of HDAC inhibitor as follows: 1.

Compared with `CCC(=O)CCCOC[C@H](NC(=O)[C@H]1CC12CCN(CC)CC2)c1ncc(-c2cc3ccccc3nc2OC)[nH]1` [Compound 7, (1S)-6-ethyl-N-{(1R)-1-[5-(2-methoxyquinolin-3-yl)-1H-imidazol-2-yl]-2-[(4-oxohexyl)oxy]ethyl}-6-azaspiro[2.5]octane-1-carboxamide], `COc1nc2ccccc2cc1-c1cnc([C@H](COCCCC(=O)c2ncco2)NC(=O)[C@H]2CC23CCN(C)CC3)[nH]1` [Compound 11, (1S)-N-{(1R)-1-[5-(2-methoxyquinolin-3-yl)-1H-imidazol-2-yl]-2-[4-(1,3-oxazol-2-yl)-4-oxobutoxy]ethyl}-6-methyl-6-azaspiro[2.5]octane-1-carboxamide] is higher in IC50: 19 µM for the first, greater than 45 µM for the second.

`CN(C)CC(=O)N[C@@H](COCCCC(=O)c1ccon1)c1[nH]c(-c2ccc(F)cc2)nc1Cl` [Compound 17, N-[(1R)-1-[4-chloro-2-(4-fluorophenyl)-1H-imidazol-5-yl]-2-(4-isoxazol-3-yl-4-oxobutoxy)ethyl]-N~2~,N~2~- dimethylglycinamide] and `CN1CC(C(=O)N[C@@H](COCCCC(=O)c2ccon2)c2[nH]c(-c3ccc(F)cc3)nc2Cl)C1` [Compound 16, N-[(1R)-1-[4-chloro-2-(4-fluorophenyl)-1H-imidazol-5-yl]-2-(4-isoxazol-3-yl-4-oxobutoxy)ethyl]-1-methylazetidine-3-carboxamide] cannot be ordered by IC50: greater than 0.9 µM for the first, greater than 0.9 µM for the second.

`COc1nc2ccccc2cc1-c1cnc([C@H](COCCCC(=O)c2ccon2)NC(=O)CN(C)C)[nH]1` [Compound 14, N-{(1R)-2-(4-isoxazol-3-yl-4-oxobutoxy)-1-[5-(2-methoxyquinolin-3-yl)-1H-imidazol-2-yl]ethyl}-N~2~,N~2~- dimethylglycinamide] and `COc1nc2ccccc2cc1-c1cnc([C@H](COCCCC(=O)c2ncco2)NC(=O)CN(C)C)[nH]1` [Compound 13, N-{(1R)-1-[5-(2-methoxyquinolin-3-yl)-1H-imidazol-2-yl]-2-[4-(1,3-oxazol-2-yl)-4-oxobutoxy]ethyl}-N~2~,N~2~- dimethylglycinamide] cannot be ordered by IC50: greater than 45 µM for the first, greater than 45 µM for the second.

`CNC(=O)C(=O)CCCOC[C@H](NC(=O)C12CCN(CC1)CC2)c1ncc(-c2cc3ccccc3nc2OC)[nH]1` [Compound 9, N-[(1R)-1-[5-(2-methoxyquinolin-3-yl)-1H-imidazol-2-yl]-2-{[5-(methylamino)-4,5-dioxopentyl]oxy}ethyl]-1-azabicyclo[2.2.2]octane-4-carboxamide] and `CCC(=O)CCCOC[C@H](NC(=O)C12CCN(CC1)CC2)c1ncc(-c2cc3ccccc3nc2OC)[nH]1` [Compound 6, N-{(1R)-1-[5-(2-methoxyquinolin-3-yl)-1H-imidazol-2-yl]-2-[(4-oxohexyl)oxy]ethyl}-1-azabicyclo[2.2.2]octane-4-carboxamide] cannot be ordered by IC50: greater than 45 µM for the first, greater than 45 µM for the second.

`CN1CCC2(CC1)C[C@@H]2C(=O)N[C@@H](COCCCC(=O)c1ccon1)c1[nH]c(-c2ccc(F)cc2)nc1Cl` [Compound 18, (1S)-N-[(1R)-1-[4-chloro-2-(4-fluorophenyl)-1H-imidazol-5-yl]-2-(4-isoxazol-3-yl-4-oxobutoxy)ethyl]-6-methyl-6-azaspiro[2.5]octane-1-carboxamide] and `COc1cc2nc(C)ccc2cc1-c1cnc([C@H](COCCCC(=O)c2cc(C)on2)NC(=O)[C@H]2CC23CCN(C)CC3)[nH]1` [Compound 20, (1S)-N-{(1R)-1-[5-(7-methoxy-2-methylquinolin-6-yl)-1H-imidazol-2-yl]-2-[4-(5-methylisoxazol-3-yl)-4-oxobutoxy]ethyl}-6-methyl-6-azaspiro[2.5]octane-1-carboxamide] cannot be ordered by IC50: greater than 0.9 µM for the first, greater than 0.9 µM for the second.

`COc1nc2ccccc2cc1-c1cnc([C@H](COCCCC(=O)c2ncco2)NC(=O)C23CCN(CC2)CC3)[nH]1` [Compound 12, N-{(1R)-1-[5-(2-methoxyquinolin-3-yl)-1H-imidazol-2-yl]-2-[4-(1,3-oxazol-2-yl)-4-oxobutoxy]ethyl}-1-azabicyclo[2.2.2]octane-4-carboxamide] and `COc1nc2ccccc2cc1-c1cnc([C@H](COCCCC(=O)c2ncco2)NC(=O)c2cncs2)[nH]1` [Compound 10, N-{(1R)-1-[5-(2-methoxyquinolin-3-yl)-1H-imidazol-2-yl]-2-[4-(1,3-oxazol-2-yl)-4-oxobutoxy]ethyl}-1,3-thiazole-5-carboxamide] cannot be ordered by IC50: greater than 45 µM for the first, greater than 45 µM for the second.

Compared with `CNC(=O)C(=O)CCCOC[C@H](NC(=O)c1cncs1)c1ncc(-c2cc3ccccc3nc2OC)[nH]1` [Compound 8, N-[(1R)-1-[5-(2-methoxyquinolin-3-yl)-1H-imidazol-2-yl]-2-{[5-(methylamino)-4,5-dioxopentyl]oxy}ethyl]-1,3-thiazole-5-carboxamide], `COc1cc2nc(C)ccc2cc1-c1cnc([C@H](COCCCC(=O)c2cc(C)on2)NC(=O)C2CN(C)C2)[nH]1` [Compound 19, N-{(1R)-1-[5-(7-methoxy-2-methylquinolin-6-yl)-1H-imidazol-2-yl]-2-[4-(5-methylisoxazol-3-yl)-4-oxobutoxy]ethyl}-1-methylazetidine-3-carboxamide] is 11-fold lower in IC50: 5.11 µM for the first, 0.469 µM for the second.

`Cc1ccc2cc(-c3cnc([C@H](CSCCCC(=O)c4ncco4)NC(=O)[C@H]4CC45CCN(C)CC5)[nH]3)ccc2n1` [Compound 21, (1S)-6-methyl-N-[(1R)-1-[5-(2-methylquinolin-6-yl)-1H-imidazol-2-yl]-2-{[4-(1,3-oxazol-2-yl)-4-oxobutyl]sulfanyl}ethyl]-6-azaspiro[2.5]octane-1-carboxamide] and `N[C@@H](COCCCC(=O)c1ccon1)c1ncc(-c2ccccc2F)[nH]1` [Compound 2, (R)-4-(2-amino-2-(5-(2-fluorophenyl)-1H-imidazol-2-yl)ethoxy)-1-(isoxazol-3-yl)butan-1-one] cannot be ordered by IC50: 19.3 µM for the first, greater than 0.9 µM for the second.
